Results published in ChEMBL document CHEMBL1201862, “PubChem BioAssay data set” (2004).
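All cell lines were grown in 96-well plates and treated with compound for 48 hours. Here, GI50 denotes the concentration required for 50% inhibition of growth.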 Active and inactive are the calls of the source. Cut-off read from the data, not from the text of the source: active = GI50 up to about 1.1 µM and inactive = higher.

What was measured:
Assay in all cases: NCI-60 cell line screen, 48 h
A498 = system: A498
MDA-MB-435 = system: MDA-MB-435
HCT-116 = system: HCT-116
M14 = system: M14
BT-549 = system: BT-549
NCI-H522 = system: NCI-H522
A549 = system: A549
IGROV-1 = system: IGROV-1
SNB-19 = system: SNB-19
MDA-N = system: MDA-N
OVCAR-5 = system: OVCAR-5
NCI-H460 = system: NCI-H460
SK-MEL-28 = system: SK-MEL-28
HOP-62 = system: HOP-62
SK-MEL-5 = system: SK-MEL-5
NCI-H23 = system: NCI-H23
T47D = system: T47D
SK-OV-3 = system: SK-OV-3
CCRF-CEM = system: CCRF-CEM

Row | Structure (SMILES) | GI50 (A498) | GI50 (MDA-MB-435) | GI50 (HCT-116) | GI50 (M14) | GI50 (BT-549) | GI50 (NCI-H522) | GI50 (A549) | GI50 (IGROV-1) | GI50 (SNB-19) | GI50 (MDA-N) | GI50 (OVCAR-5) | GI50 (NCI-H460) | GI50 (SK-MEL-28) | GI50 (HOP-62) | GI50 (SK-MEL-5) | GI50 (NCI-H23) | GI50 (T47D) | GI50 (SK-OV-3) | GI50 (CCRF-CEM)
1 | O=C(O)c1cc(O)nc(SCc2ccccc2)n1 | > 100 µM (inactive) | > 100 µM (inactive) | > 100 µM (inactive) | > 100 µM (inactive) | > 100 µM (inactive) | > 100 µM (inactive) | > 100 µM (inactive) | > 100 µM (inactive) | > 100 µM (inactive) | > 100 µM (inactive) | > 100 µM (inactive) | > 100 µM (inactive) | > 100 µM (inactive) | > 100 µM (inactive) | > 100 µM (inactive) | > 100 µM (inactive) | > 100 µM (inactive) | – | –
2 | c1ccc2oc(-c3ccc(-c4nc5ccccc5o4)c4c3CC4)nc2c1 | > 100 µM (inactive) | > 100 µM (inactive) | > 100 µM (inactive) | > 100 µM (inactive) | > 100 µM (inactive) | – | > 100 µM (inactive) | > 100 µM (inactive) | > 100 µM (inactive) | > 100 µM (inactive) | > 100 µM (inactive) | > 100 µM (inactive) | > 100 µM (inactive) | > 100 µM (inactive) | > 100 µM (inactive) | > 100 µM (inactive) | > 100 µM (inactive) | > 100 µM (inactive) | > 100 µM (inactive)
3 | C#CC(O)/C=C/CCCCCCC#CC/C=C\CC#CCCCCCC/C=C/C(O)C#C (configuration not stated) | 3.21 µM (inactive) | 2.34 µM (inactive) | 1.57 µM (inactive) | 1.03 µM (active) | 2.86 µM (inactive) | – | 2.59 µM (inactive) | 0.561 µM (active) | 12.4 µM (inactive) | 2.24 µM (inactive) | 2.48 µM (inactive) | 4.35 µM (inactive) | 1.77 µM (inactive) | 2.1 µM (inactive) | 1.44 µM (inactive) | 0.701 µM (active) | 1.4 µM (inactive) | 18 µM (inactive) | 0.255 µM (active)
4 | CSC1(Cc2ccccn2)C(=O)Nc2cccc([N+](=O)[O-])c21 (configuration not stated) | – | > 100 µM (inactive) | 79.1 µM (inactive) | > 100 µM (inactive) | > 100 µM (inactive) | 61.1 µM (inactive) | > 100 µM (inactive) | > 100 µM (inactive) | > 100 µM (inactive) | > 100 µM (inactive) | > 100 µM (inactive) | > 100 µM (inactive) | 55.5 µM (inactive) | > 100 µM (inactive) | > 100 µM (inactive) | > 100 µM (inactive) | 52.1 µM (inactive) | > 100 µM (inactive) | 48 µM (inactive)
5 | N=C(N)N/N=C/c1c(-c2ccc(Cl)c(Cl)c2Cl)nc2sccn12 | 1.1 µM (active) | 1.85 µM (inactive) | 1.55 µM (inactive) | 1.57 µM (inactive) | 1.56 µM (inactive) | 1.23 µM (inactive) | 1.53 µM (inactive) | 1.27 µM (inactive) | 1.33 µM (inactive) | 1.59 µM (inactive) | 1.49 µM (inactive) | 1.7 µM (inactive) | 1.73 µM (inactive) | 1.69 µM (inactive) | 1.74 µM (inactive) | 1.29 µM (inactive) | 1.59 µM (inactive) | 1.91 µM (inactive) | –
6 | O=C(/C=C1\C[C@H]2C=Nc3ccccc3C(=O)N2C1)NCCCNC(=O)/C=C1\C[C@H]2C=Nc3ccccc3C(=O)N2C1 | 17.5 µM (inactive) | 19.1 µM (inactive) | 16 µM (inactive) | 14.4 µM (inactive) | 16.4 µM (inactive) | 1.96 µM (inactive) | 21.1 µM (inactive) | 17.3 µM (inactive) | 16.4 µM (inactive) | 17.1 µM (inactive) | 21.2 µM (inactive) | 18.6 µM (inactive) | 18.9 µM (inactive) | 16.6 µM (inactive) | 16.1 µM (inactive) | 15.5 µM (inactive) | 16 µM (inactive) | 18.5 µM (inactive) | –
